Measurements: EP0646015B1, “CONTRACEPTIVE VACCINE” (THE UNIVERSITY OF CONNECTICUT, priority 1992, dated 1993)
“And” between values parts separate entries of the source, which are not always exact repeats. Identical values can stand only once.

Test system: sperm-egg fusion
Experiment: sperm-egg fusion inhibition assay
Format: cell-based, guinea pig
Set-up: inhibits sperm-egg fusion / % Inhibition: concentration or dose not given beside the values
Experimental: The fusion inhibition assay was carried out as follows. Eggs were collected from guinea pig ovaries. The eggs were incubated in tissue culture medium overnight. The zona pellucida was removed with a mixture of proteases. The zona pellucida free eggs were incubated in culture media with peptide at a specified concentration for 30 minutes.
Sperm collected from the epididymis of male guinea pigs was capacitated by incubation and acrosome reacted as described by Fleming and Yanagimachi (Gamete Res. 4: 253-273 (1981)) and added to the eggs and incubated for 15 minutes. The eggs were then transferred to a sperm free culture medium and incubated for an additional 1 hour and 45 minutes. The eggs were then fixed and stained as described by Primakoff et al. (J. Cell. Biol. 104: 141 (1987)). The total number of swollen sperm heads were then counted. Swollen sperm heads are an indication that the sperm and egg have fused.
On the basis of these observations, several indices are calculated. The fertilization index (F.I.) is determined by dividing the total number of swollen heads by the total number of eggs. The fertilization rate (F.R.) is the percentage of eggs fertilized. The percent inhibition is determined by dividing the fertilization index of the experimental peptide by the fertilization index of the control peptide.

CSTDEC was tested, and the F.R. (Table 4, TDE peptides compared with no peptide control) was 8% and 11%, the “% Inhibition” value (Table 4, relative to F.I. of no peptide control of the same experiment) was 89% and 95% and the “% Inhibition” value (Table 5, relative to F.I. of control peptide GRGES of the same experiment) was 90% and 98%. For the same substance, the “inhibition of sperm-egg fusion (in words)” value (compared to no peptide or control peptide) was “strongly inhibited” and the inhibits sperm-egg fusion (when the fertilization index is near the normal level of 1 sperm per egg, compared with no peptide (Table 4)) was 89%.
